From article PMC10197068 (Bioconjugate Chemistry, 2023)

Assays:
[1] = tested on: G1 (DNA, G4) AGGGTTAGGGTTAGGGTTAGGG; test: CD melting at 295 nm; conditions: 100 mM NaCl, 10 mM Li cacodylate, pH 7.3, 6 μM DNA
[2] = tested on: G2T6 (DNA, G4) AGGGTTAGGGTTAGGGTTAGGGTTATTATTATTATTATTAGGGTTAGGGTTAGGGTTAGGG; test: CD melting at 295 nm; conditions: 100 mM NaCl; 10 mM Li cacodylate, pH 7.3; 6 μM compound (12 μM salphen units), 3 μM DNA
[3] = tested on: G1 (K+) monomeric HTelo G4 DNA; test: Emission titration with G1 (K+); assay type: binding, human; conditions: Table S2, unit not given, ligand 2 μM, 100 mM KCl, 10 mM Li cacodylate, pH 7.3, exc 440 nm, em 590 nm, triplicate
Protocol: (§1) Next, emission titrations were carried out with the emissive Pt^II compounds M2 and D3–8 and G4/duplex DNA to obtain association constants. Both Na^+ and K^+ stabilized monomeric and dimeric G4 DNA were investigated. Additionally, titrations were carried out with CT-DNA to evaluate the selectivity for G4 versus duplex DNA. Figure 5 summarizes the obtained results (see Figures S24–S37 and Table S2 for a full set of titration data). First discussed are the experiments conducted in Na^+ buffer, in which the G4 topology formed is antiparallel.[41] […] As discussed previously, this could potentially be caused by a “sandwiched” binding mode in which the metal-salphen complex sits between two G-quadruplex units. For dimeric metal-salphen complexes D3–8, however, there are several differences when compared to the CD melting studies. […] Upon increasing the linker length to a two-amino-acid sequence (RR and KK for compounds D4 and D5, respectively), larger Ka values were obtained with minimal change to the pattern of selectivity. […] Increasing the linker length to an eight-amino-acid sequence (RRRRRRRR) led to a similar stabilization of G2T6, while G1 stabilization increased.
(§2) G-Quadruplex oligonucleotides were purchased from Eurogentec (Belgium), and CT-DNA was purchased from Sigma-Aldrich. Stock solutions were prepared via dilution in the appropriate buffers to concentrations of 300–400 μM determined by UV–vis measurements in which increasing amounts of DNA were added to a cuvette and the absorbance at 260 nm recorded using an Agilent Cary UV 60 spectrometer. Prior to use, the DNA stock solutions were annealed by heating at 95 °C for 5 min and then cooling to room temperature overnight.
(§3) Experiments were carried out using a BMG Clariostar Microplate reader with Greiner Bio-One half-volume (100 μL/well) plates. Excitation was carried out at 440 nm and recorded from 500 to 700 nm in addition to a matrix scan at 590 nm. Titrations were carried out using G1, G2T1, and G2T6 (Na^+) G4 DNA (100 mM NaCl, 10 mM Li cacodylate, pH 7.3); G1, G2T1, and G2T6 (K^+) G4 DNA (100 mM KCl, 10 mM Li cacodylate, pH 7.3); and CT-DNA (100 mM KCl, 10 mM Li cacodylate, pH 7.3). Ligand concentration was kept constant at 2 μM, and the following DNA equivalents were tested: 0, 0.1, 0.2, 0.3, 0.4, 0.5, 0.75, 1, 1.5, 2, 3, and 5 (for CT-DNA 10× base pair equivalents were used, i.e., 1 to 50 BPE). Sample preparation was carried out by preparing stock solutions of double concentration ligand (4 μM) and DNA in the appropriate buffer, before 50 μL of each was added to the appropriate well and mixed. Experiments were conducted in triplicate and binding constants were obtained by curve fitting in Graphpad Prism 8 using eq 1.[46] [drawing 1] 1
(§4) Fluorescence response (y) was fitted against DNA concentration (x); R is the machine response, K is the association constant of ligand and DNA, L is the concentration of ligand, and n is the number of binding sites per DNA. The values of L and n were varied so that that the L was equal to the number of salphen units and n was equal to the number of G4 faces per DNA. The matrix scan results were used to plot the titration curves and 500–700 nm scan results were used to confirm that expected curve shapes and shifts were observed.

[4] = tested on: G2T1 (K+) dimeric HTelo G4 DNA; test: Emission titration with G2T1 (K+); assay type: binding, human; conditions: Table S2, unit not given, ligand 2 μM, 100 mM KCl, 10 mM Li cacodylate, pH 7.3, exc 440 nm, em 590 nm, triplicate
Protocol: as §1, §2, §3, §4

[5] = tested on: G2T6 (K+) dimeric HTelo G4 DNA; test: Emission titration with G2T6 (K+); assay type: binding, human; conditions: Table S2, unit not given, ligand 2 μM, 100 mM KCl, 10 mM Li cacodylate, pH 7.3, exc 440 nm, em 590 nm, triplicate
Protocol: as §1, §2, §3, §4

[6] = tested on: G1 (Na+) monomeric HTelo G4 DNA; test: Emission titration with G1 (Na+); assay type: binding, human; conditions: Table S2, unit not given, ligand 2 μM, 100 mM NaCl, 10 mM Li cacodylate, pH 7.3, exc 440 nm, em 590 nm, triplicate
Protocol: as §1, §2, §3, §4

[7] = tested on: G2T1 (Na+) dimeric HTelo G4 DNA; test: Emission titration with G2T1 (Na+); assay type: binding, human; conditions: Table S2, unit not given, ligand 2 μM, 100 mM NaCl, 10 mM Li cacodylate, pH 7.3, exc 440 nm, em 590 nm, triplicate
Protocol: as §1, §2, §3, §4

[8] = tested on: G2T6 (Na+) dimeric HTelo G4 DNA; test: Emission titration with G2T6 (Na+); assay type: binding, human; conditions: Table S2, unit not given, ligand 2 μM, 100 mM NaCl, 10 mM Li cacodylate, pH 7.3, exc 440 nm, em 590 nm, triplicate
Protocol: as §1, §2, §3, §4

[9] = Precipitation on addition to DNA solution (CD melting conditions); assay type: physicochemical; conditions: CD melting concentrations: dimeric salphen 6 μM, G1 6 μM or G2Tx 3 μM; 100 mM NaCl, 10 mM Li cacodylate, pH 7.3
Protocol: First, circular dichroism (CD) melting experiments were carried out with compounds D1–8 and their monomeric analogues M1–2 via the combination of DNA and compound in which the ratio of salphen units to G4 external tetrads was kept at a constant ratio of 2:1, i.e., [monomeric salphen] = 12 μM, [dimeric salphen] = 6 μM, [G1] = 6 μM, and [G2Tx] = 3 μM. The CD melting experiments were conducted solely with Na^+ stabilized DNA, which forms an antiparallel topology in solution (cf., in the presence of K^+ a mixture of topologies is observed). During the assay the temperature was increased from 25 to 95 °C upon which the intensity of signals with negative ellipticity at ca. 265 nm and positive ellipticity at ca. 295 (characteristic of an antiparallel G4 structure) decreased—see Figure 4a. This indicates the expected unfolding of the G4 DNA structure as the temperature increases. […] From these curves, the ΔTm values for the different sequences and compounds were determined, and the results are summarized in Figure 4c (see Supplementary Table 1 for values).
Experiments were carried out on a Jasco J-810 spectrophotometer using a 1 cm quartz cuvette. […] The signal at 295 nm was monitored as temperature was increased for 25 to 95 °C at a rate of 2 °C/min. […]

[10] = tested on: human osteosarcoma U2OS cells
Protocol: Cytotoxicity studies of compounds were carried out on a U-2 OS cell line (human osteosarcoma cells). These cells were grown on culture medium McCoy’s 5A Medium supplemented with 10% FBS (Fetal Bovine Serum) in an atmosphere of 95% air and 5% CO2 at 37 °C. Inhibition of cell growth induced by the tested compound was evaluated using a MTT assay. The cells were seeded in a sterile 96-well plate at a density of 15,000 cells per well and incubated for 24 h in growth medium. Afterward, the compound dissolved in H2O or DMSO was added to the cells maintaining the same proportion of solvent in each well. After 48 h of incubation in an atmosphere of 95% air and 5% CO2 at 37 °C, 10 μL of 5 mg/mL MTT prepared in PBS (0.136 M NaCl, 1.47 mM KH2PO4, 8 mM NaH2PO4, and 2.68 mM KCl) was added to each well, and the cell plate was incubated for another 4 h. […] Finally, absorbance of the cell plate was measured at a wavelength of 595 nm (Tecan M1000 infinite Pro). […] The absorbance measurement range was assessed between one value (average of triplicate points) containing 15,000 cells in McCoy’s 5A medium and in the absence of growth factors (which allows to determine the stable cell concentration) and another value (average of triplicate points) containing the usual growth medium (which allows to measure the maximum cell growth at 48 h). […]

In the case of `C[N+](C)(C)CCOc1ccc(C=Nc2ccc(C(=O)NCc3cn(CC(=O)N[C@@H](CCCCN)C(=O)N[C@@H](CCCCN)C(=O)N[C@@H](Cn4cc(CNC(=O)c5ccc(N=Cc6ccc(OCC[N+](C)(C)C)cc6[O-])c(N=Cc6ccc(OCC[N+](C)(C)C)cc6[O-])c5)nn4)C(N)=O)nn3)cc2N=Cc2ccc(OCC[N+](C)(C)C)cc2[O-])c([O-])c1.[Pt+2].[Pt+2]`, the ΔTm ([1]; 6 μM compound (12 μM salphen units)) is reported as 5.5 °C.
Work on `C[N+](C)(C)CCOc1ccc(C=Nc2ccc(C(=O)NCc3cn(CCOCCn4cc(CNC(=O)c5ccc(N=Cc6ccc(OCC[N+](C)(C)C)cc6[O-])c(N=Cc6ccc(OCC[N+](C)(C)C)cc6[O-])c5)nn4)nn3)cc2N=Cc2ccc(OCC[N+](C)(C)C)cc2[O-])c([O-])c1.[Pt+2].[Pt+2]` yielded a ΔTm ([1]; 6 μM compound, b22 states 1.1–1.5 °C for D1–4) of 3.0 °C and a ΔTm [2] of 6.4 °C.
With RRRRRRRR [Compound D8] the “Association constant G1 (K+), mean” value [3] was 0.84, the “Association constant G2T1 (K+), mean” value [4] was 0.22 and the “Association constant G2T6 (K+), mean” value [5] was 0.38. For the same compound, the “Association constant G1 (Na+), mean” value [6] was 0.47, the “Association constant G2T1 (Na+), mean” value [7] was 0.31 and the “Association constant G2T6 (Na+), mean” value [8] was 0.75. The “precipitation on addition to the DNA solution” value [9] was “caused precipitation” and the IC50 [10] was 43 µM.
